Article PMC10008561 (Nature Communications, 2023)
Where “and” joins values, the source holds several entries; their conditions need not be identical. Equal values may be shown once.

What was measured:
Experiment in all cases: cell-based
[1] = biological target: T1, human KOR (Gi2) (Homo sapiens, UniProt P41145)
T1 construct: expressed in transfected cells; host or cells: HEK293T

[2] = biological target: T2, human KOR (Gi2) (Homo sapiens, UniProt P41145, K200A)
T2 construct: expressed in transfected cells; host or cells: HEK293T

[3] = biological target: T3, human KOR (Gi2) (Homo sapiens, UniProt P41145, N141A)
T3 construct: expressed in transfected cells; host or cells: HEK293T

[4] = biological target: T4, human KOR (Gi2) (Homo sapiens, UniProt P41145, D105A); details: HEK-293T
T4 construct: expressed in transfected cells; host or cells: HEK293T

[5] = biological target: T5, human KOR (Gi2) (Homo sapiens, UniProt P41145, T94V)
T5 construct: expressed in transfected cells; host or cells: HEK293T

[6] = biological target: T6, human KOR (Gi2) (Homo sapiens, UniProt P41145, Y139L)
T6 construct: expressed in transfected cells; host or cells: HEK293T

[7] = biological target: T7, human KOR (Gi2) (Homo sapiens, UniProt P41145, N326A)
T7 construct: expressed in transfected cells; host or cells: HEK293T

[8] = biological target: T8, human KOR (Gi2) (Homo sapiens, UniProt P41145, D155A)
T8 construct: expressed in transfected cells; host or cells: HEK293T

[9] = biological target: T9, human KOR (Gi2) (Homo sapiens, UniProt P41145, Y320L)
T9 construct: expressed in transfected cells; host or cells: HEK293T

[10] = biological target: T10, human KOR (Gi2) (Homo sapiens, UniProt P41145, F114L)
T10 construct: expressed in transfected cells; host or cells: HEK293T

[11] = biological target: T11, human KOR (Gi2) (Homo sapiens, UniProt P41145, R257A)
T11 construct: expressed in transfected cells; host or cells: HEK293T

[12] = biological target: T12, human KOR (Gi2) (Homo sapiens, UniProt P41145, L253A)
T12 construct: expressed in transfected cells; host or cells: HEK293T

[13] = biological target: T13, human KOR (Homo sapiens, UniProt P41145, E209A); details: HEK-293T
T13 construct: expressed in transfected cells; host or cells: HEK 293T (ATCC, CRL-3216)

[14] = biological target: T14, human KOR (Homo sapiens, UniProt P41145, K227A); details: HEK-293T
T14 construct: expressed in transfected cells; host or cells: HEK 293T (ATCC, CRL-3216)

[15] = biological target: T15, human KOR (Homo sapiens, UniProt P41145, Q115N); details: HEK-293T
T15 construct: expressed in transfected cells; host or cells: HEK 293T (ATCC, CRL-3216)

[16] = biological target: T16, human KOR (Homo sapiens, UniProt P41145, Y320L); details: HEK-293T
T16 construct: expressed in transfected cells; host or cells: HEK 293T (ATCC, CRL-3216)

[17] = biological target: T17, human KOR (Homo sapiens, UniProt P41145, W124L); details: HEK-293T
T17 construct: expressed in transfected cells; host or cells: HEK 293T (ATCC, CRL-3216)

[18] = biological target: T18, human KOR (Homo sapiens, UniProt P41145, S211A); details: HEK-293T
T18 construct: expressed in transfected cells; host or cells: HEK 293T (ATCC, CRL-3216)

[19] = biological target: T19, human KOR (Homo sapiens, UniProt P41145, F114L); details: HEK-293T
T19 construct: expressed in transfected cells; host or cells: HEK 293T (ATCC, CRL-3216)

[20] = biological target: T20, human KOR (Homo sapiens, UniProt P41145, V134A); details: HEK-293T
T20 construct: expressed in transfected cells; host or cells: HEK 293T (ATCC, CRL-3216)

[21] = biological target: T21, human KOR (Homo sapiens, UniProt P41145, S324C); details: HEK-293T
T21 construct: expressed in transfected cells; host or cells: HEK 293T (ATCC, CRL-3216)

[22] = biological target: T22, human KOR (Homo sapiens, UniProt P41145, W287A); details: HEK-293T
T22 construct: expressed in transfected cells; host or cells: HEK 293T (ATCC, CRL-3216)

[23] = biological target: T23, human KOR (Homo sapiens, UniProt P41145, G319L); details: HEK-293T
T23 construct: expressed in transfected cells; host or cells: HEK 293T (ATCC, CRL-3216)

[24] = biological target: human KOR (Homo sapiens, UniProt P41145)
Sequence of human KOR (Homo sapiens, UniProt P41145) (P41145 whole entry): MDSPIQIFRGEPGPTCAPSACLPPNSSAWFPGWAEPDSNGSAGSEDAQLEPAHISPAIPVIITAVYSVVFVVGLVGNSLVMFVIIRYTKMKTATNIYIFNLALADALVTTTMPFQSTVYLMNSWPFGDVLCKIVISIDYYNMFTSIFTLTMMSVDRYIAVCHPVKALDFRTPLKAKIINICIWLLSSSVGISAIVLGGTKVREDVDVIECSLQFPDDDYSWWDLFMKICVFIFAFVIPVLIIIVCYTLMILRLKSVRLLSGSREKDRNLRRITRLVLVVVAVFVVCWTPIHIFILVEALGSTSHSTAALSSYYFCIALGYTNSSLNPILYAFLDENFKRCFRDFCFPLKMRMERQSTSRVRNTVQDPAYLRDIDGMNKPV

T18 sequence (P41145 whole entry S211A): as the sequence (P41145 whole entry) above, with S211A counted along it
T19 sequence (P41145 whole entry F114L): as the sequence (P41145 whole entry) above, with F114L counted along it
T8 sequence (P41145 whole entry D155A): as the sequence (P41145 whole entry) above, with D155A counted along it
T16 sequence (P41145 whole entry Y320L): as the sequence (P41145 whole entry) above, with Y320L counted along it
T23 sequence (P41145 whole entry G319L): as the sequence (P41145 whole entry) above, with G319L counted along it
T17 sequence (P41145 whole entry W124L): as the sequence (P41145 whole entry) above, with W124L counted along it
T1 sequence (P41145 whole entry): as the sequence (P41145 whole entry) above
T12 sequence (P41145 whole entry L253A): as the sequence (P41145 whole entry) above, with L253A counted along it
T13 sequence (P41145 whole entry E209A): as the sequence (P41145 whole entry) above, with E209A counted along it
T20 sequence (P41145 whole entry V134A): as the sequence (P41145 whole entry) above, with V134A counted along it
T10 sequence (P41145 whole entry F114L): as the sequence (P41145 whole entry) above, with F114L counted along it
T9 sequence (P41145 whole entry Y320L): as the sequence (P41145 whole entry) above, with Y320L counted along it
T7 sequence (P41145 whole entry N326A): as the sequence (P41145 whole entry) above, with N326A counted along it
T3 sequence (P41145 whole entry N141A): as the sequence (P41145 whole entry) above, with N141A counted along it
T11 sequence (P41145 whole entry R257A): as the sequence (P41145 whole entry) above, with R257A counted along it
T2 sequence (P41145 whole entry K200A): as the sequence (P41145 whole entry) above, with K200A counted along it
T5 sequence (P41145 whole entry T94V): as the sequence (P41145 whole entry) above, with T94V counted along it
T14 sequence (P41145 whole entry K227A): as the sequence (P41145 whole entry) above, with K227A counted along it
T4 sequence (P41145 whole entry D105A): as the sequence (P41145 whole entry) above, with D105A counted along it
T6 sequence (P41145 whole entry Y139L): as the sequence (P41145 whole entry) above, with Y139L counted along it
T22 sequence (P41145 whole entry W287A): as the sequence (P41145 whole entry) above, with W287A counted along it
T21 sequence (P41145 whole entry S324C): as the sequence (P41145 whole entry) above, with S324C counted along it
T15 sequence (P41145 whole entry Q115N): as the sequence (P41145 whole entry) above, with Q115N counted along it

**Q.** Which results are given for `CN(C(=O)/C=C/c1ccoc1)[C@@H]1CC[C@@]2(O)[C@H]3Cc4ccc(O)c5c4[C@@]2(CCN3CC2CC2)[C@H]1O5` [Nalfurafine, nalfurafine]?
**A.** Emax% [1]: 101%; FC vs wild type [1]: 1; Emax ([1]; HEK-293T): 101%; FC vs wild type [2]: 2; Emax ([2]; HEK-293T): 104%; FC vs wild type [3]: 7; Emax ([3]; HEK-293T): 103%; Emax [4]: 96.1%; FC vs wild type [5]: 2; Emax ([5]; HEK-293T): 95.8%; FC vs wild type [6]: 1; FC vs wild type [7]: 3; Emax ([7]; HEK-293T): 101%; FC vs wild type [8]: 20 and < 10; Emax ([8]; HEK-293T): 82%; FC vs wild type [9]: 186; Emax ([9]; HEK-293T): 89.3%; FC vs wild type [10]: 18; Emax ([10]; HEK-293T): 56.9%; FC vs wild type [11]: 100; Emax ([11]; HEK-293T): 104%; FC vs wild type [12]: 87 and 100; Emax ([12]; HEK-293T): 105%; Emax [13]: 100 ± 2%; activation at 1 pM ([13]; read-out: cAMP response): 28.4%; activation at 3.162 pM ([13]; read-out: cAMP response): 77.1%; activation at 10 pM ([13]; read-out: cAMP response): 90.6%; activation at 31.62 pM ([13]; read-out: cAMP response): 94.9%; activation at 0.0001 µM ([13]; read-out: cAMP response): 99.2%; activation at 0.001 µM ([13]; read-out: cAMP response): 99.5%; activation at 0.01 µM ([13]; read-out: cAMP response): 101%; activation at 0.1 µM ([13]; read-out: cAMP response): 100%; activation at 1 µM ([13]; read-out: cAMP response): 98.2%; activation at […] ([13]; read-out: cAMP response): 96.6% and 99.9% and 99.6% and 98.7%; Emax [14]: 100 ± 3%; Emax [15]: 98 ± 3%; Emax [16]: 105 ± 2%; activation at 1 pM ([16]; read-out: cAMP response): 16.5%; activation at 3.162 pM ([16]; read-out: cAMP response): 13.2%; activation at 10 pM ([16]; read-out: cAMP response): 16.1%; activation at 31.62 pM ([16]; read-out: cAMP response): 35.7%; activation at 0.0001 µM ([16]; read-out: cAMP response): 59%; activation at 0.001 µM ([16]; read-out: cAMP response): 95.7%; activation at 0.01 µM ([16]; read-out: cAMP response): 103%; activation at 0.1 µM ([16]; read-out: cAMP response): 105%; activation at 1 µM ([16]; read-out: cAMP response): 105%; activation at […] ([16]; read-out: cAMP response): 78.6% and 99.7% and 105% (2×); Emax [17]: 98 ± 3%; activation at 10 pM ([17]; read-out: cAMP response): 17.5%; activation at 0.0001 µM ([17]; read-out: cAMP response): 29.6%; activation at 0.001 µM ([17]; read-out: cAMP response): 65.5%; activation at 0.01 µM ([17]; read-out: cAMP response): 88.1%; activation at 0.1 µM ([17]; read-out: cAMP response): 106%; activation at 1 µM ([17]; read-out: cAMP response): 99.8%; activation at […] ([17]; read-out: cAMP response): 45.8% and 75.2% and 98.3% and 97.1%; Emax [18]: 107 ± 2%; activation at 1 pM ([18]; read-out: cAMP response): 16.4%; activation at 3.162 pM ([18]; read-out: cAMP response): 71%; activation at 10 pM ([18]; read-out: cAMP response): 91.3%; activation at 31.62 pM ([18]; read-out: cAMP response): 99.8%; activation at 0.0001 µM ([18]; read-out: cAMP response): 106%; activation at 0.001 µM ([18]; read-out: cAMP response): 107%; activation at 0.01 µM ([18]; read-out: cAMP response): 108%; activation at 0.1 µM ([18]; read-out: cAMP response): 107%; activation at 1 µM ([18]; read-out: cAMP response): 103%; activation at […] ([18]; read-out: cAMP response): 107% (2×) and 105% and 104%; Emax [19]: 97 ± 4%; activation at 3.162 pM ([19]; read-out: cAMP response): 9.34%; activation at 31.62 pM ([19]; read-out: cAMP response): 29.6%; activation at 0.0001 µM ([19]; read-out: cAMP response): 36.4%; activation at 0.001 µM ([19]; read-out: cAMP response): 68%; activation at 0.01 µM ([19]; read-out: cAMP response): 90.9%; activation at 0.1 µM ([19]; read-out: cAMP response): 99.9%; activation at 1 µM ([19]; read-out: cAMP response): 97.6%; activation at […] ([19]; read-out: cAMP response): 66.6% and 88.8% and 97.4% and 103%; Emax [20]: 93 ± 3%; activation at 3.162 pM ([20]; read-out: cAMP response): 23.5%; activation at 10 pM ([20]; read-out: cAMP response): 48.2%; activation at 31.62 pM ([20]; read-out: cAMP response): 53.1%; activation at 0.0001 µM ([20]; read-out: cAMP response): 62.8%; activation at 0.001 µM ([20]; read-out: cAMP response): 82.5%; activation at 0.01 µM ([20]; read-out: cAMP response): 96.2%; activation at 0.1 µM ([20]; read-out: cAMP response): 104%; activation at 1 µM ([20]; read-out: cAMP response): 96.6%; activation at […] ([20]; read-out: cAMP response): 58.2% and 90% and 99.4% and 95.7%; Emax [21]: 99 ± 2%; Emax [22]: 98 ± 4%; Emax [23]: 103 ± 4%; activation at 1 pM ([23]; read-out: cAMP response): 18.4%; activation at 31.62 pM ([23]; read-out: cAMP response): 24%; activation at 0.0001 µM ([23]; read-out: cAMP response): 46%; activation at 0.001 µM ([23]; read-out: cAMP response): 62.9%; activation at 0.01 µM ([23]; read-out: cAMP response): 94.9%; activation at 0.1 µM ([23]; read-out: cAMP response): 107%; activation at 1 µM ([23]; read-out: cAMP response): 104%; activation at […] ([23]; read-out: cAMP response): 44.6% and 75.9% and 100%; reduction of potency [24]: 5 fold
